Experiments:
U266 MM cells = assay: cells; details: Homo sapiens, U-266, 48 h
KMS-12 MM cells = assay: [3H]thymidine incorporation; type: cell-based; details: Homo sapiens, single agent at 48 hr
Protocol: (§1) Additional details are provided in Supplemental Experimental Procedures.
Cell Proliferation, Cell Death, and Apoptosis Assays
W allac Trilux Microbeta 3 β -counter (Perk inElmer). Values were expressed as the percentage of the […]
respective untreated cultures. […]
splitting them as necessary during the assays. […]
previously (Riccardi and Nicoletti, 2006).
Cells were then f ixed in 70% ice- cold ethanol for 16 hr, washed in PBS, and treated with ribonuclease A (50 μg/mL) f or 30 min at room temperature. Samples were f inally stained with PI (50 µg/mL) in 0.1% sodium citrate buffer for 2 to 4 hr at 4°C in the dark , and data were acquired using a FACSCalibur automated system (Becton Dick inson) and analyzed with FlowJo.
The viability of primary CD138 + cells f rom patients was assessed using trypan blue exclusion assays (Mauro et al., 2011; Arnold et al., 2008), perf ormed as described above. Cells were seeded […]
Cell viability in the treated cultures was expressed as the percentage of cell survival relative to the survival observed in the respective untreated cultures, represented as 100%. […]
The activities of DTP3 and bortezomib in the U266 and KMS-12 myeloma cell lines, both as single agents and in combination, were determined using [3H]thymidine incorporation assays, performed as described above in “Cell Prolif eration, Cell Death, and Apoptosis Assays”. […]

[1] = test system: human mesenchymal stem cells (MSCs); assay: cells; details: Homo sapiens, Mesenchymal stem cells, 48 h, read-out: IC50 (normal; MCSs)
Excerpt: as §1
(§2) automated system (Becton Dick inson) and analyzed with FlowJo.

human BMSCs = assay: cells; details: Homo sapiens, BMSC, 48 h, read-out: IC50 (normal; BMSCs)
Excerpt: as §1, §2

[2] = test system: CD138+ cells from WM patients; assay: cells; details: Homo sapiens, 48 h, read-out: IC50 (WM; PCs (n= 2))
Excerpt: as §1, §2

mouse splenocytes = assay: cells; details: Mus musculus, Splenocyte, 48 h, read-out: IC50 (normal; splenocytes)
Excerpt: as §1, §2

[3] = test system: CD138+ cells from MM patients; assay: cells; details: Homo sapiens, 48 h, read-out: IC50 (MM; PCs (n = 8))
Excerpt: as §1, §2

human PBMCs = assay: cells; details: Homo sapiens, PBMC, 48 h, read-out: IC50 (normal; PBMCs)
Excerpt: as §1, §2

[4] = test system: mouse lymph node (LN) cells; assay: cells; details: Mus musculus, 48 h, read-out: IC50 (normal; lymph node cells)
Excerpt: as §1, §2

IC50 (U266 MM cells): 6 nM
IC50 (KMS-12 MM cells): 6 nM
IC50 [2]: 3.38 ± 2 nM
IC50 [3]: 8.7 ± 2.1 nM
SMILES: CC(C)C[C@H](NC(=O)[C@H](Cc1ccccc1)NC(=O)c1cnccn1)B(O)O [Bortezomib, reference compound]
IC50 [1]: 79.4 nM
IC50 (human BMSCs): 80 nM
IC50 (mouse splenocytes): 80 nM
IC50 (human PBMCs): 63.1 nM
IC50 [4]: 91.1 nM

Source: PMC4197335, “Cancer-Selective Targeting of the NF-κB Survival Pathway with GADD45β/MKK7 Inhibitors” (Cancer Cell, 2014)
